Laboratory results: US20250127162A1, “METHODS AND COMPOSITIONS FOR CONTROLLING PESTS IN RICE” (Globachem NV, priority 2022, published 2025)

Tested on: Rice
Assay: Phytotoxicity on rice (Example 1, Trials 1-2, Spain)
Assay type: in vivo
Design: key: % leaf necrosis/discoloration vs untreated plants
Details: applications AB
Text: “Low Phytotoxicity” of pelargonic acid, as used herein means that the toxic effect on plants is absent or at such a level so as not to adversely impact the growth and/or yield of the plant under a given set of test conditions, e.g., at a given concentration of pelargonic acid. Phytotoxic effects may be measured in a number of different ways, for example, according to the principals set out in OEPP/EPPO Bulletin (2014) 44 (3), 265-273 “PP 1/135 (4) Phytotoxicity assessment”. The phytotoxic effect on plants may be assessed visually as a function of the percentage of discoloration to the leaves and/or the appearance of necrosis. When the pelargonic acid compositions are applied to the foliage of the rice plants in accordance with the teachings herein, will typically result in a level of phytotoxicity of less than 20%, preferably less than 15%, more preferably less than 10% necrosis of the leaves in comparison to untreated plants. Preferred uses of the invention will typically result in phytotoxicity of 7% or less, whilst the most preferred uses will typically result in phytotoxicity of 5% or less. The above values are approximate as any purely visual assessment is likely to contain a degree of subjectivity.
All applications were made with an EC formulation containing 650 g/L of pelargonic acid (e.g., 685 g/L of 95% purity pelargonic acid), an anionic emulsifier and a branched fatty acid ester solvent.
Application A was made to the crops at the beginning of infestations; for these trials, Stage BBCH 59; Application B was made 14 days after Application A.
(§1) Trial 1 was conducted in Spain using a water volume of 300 L/ha of water per application unless otherwise indicated. Pest Incidence/Number of Insects (PESINC) and Pest Severity (PESSEV) as a Percent of Untreated Check (% UNCK) as well as Phytotoxicity were assessed at various treatment evaluation intervals.
as §1, with “2” for “1”

Measured: Phytotoxicity

CCCCCCCCC(=O)O [PA 650 g/ha, pelargonic acid]
0: Trial 1 (PESINC table), water volume 150 L/ha | Trial 1 (PESINC table), water volume 300 L/ha | Trial 1 (PESSEV table), water volume 150 L/ha | Trial 1 (PESSEV table), water volume 300 L/ha | Trial 2 (PESINC table), water volume 150 L/ha | Trial 2 (PESINC table), water volume 300 L/ha | Trial 2 (PESSEV table), water volume 150 L/ha | Trial 2 (PESSEV table), water volume 300 L/ha
